{"source": "patent EP0994713B1", "about": "“USE OF A 7alpha-METHYL-17alpha-ETHYNYL-ESTRANE DERIVATIVE FOR THE TREATMENT OF ATHEROSCLEROSIS” (Akzo Nobel N.V., priority 1997, dated 1998)", "format_in_all_cases": "in vivo, New Zealand White rabbits", "key": {"[1]": {"tested_on": "female ovariectomized rabbits", "assay": "Plasma cholesterol levels, cholesterol fed rabbit model", "details": "for Mean plasma cholesterol exposure: cholesterol diet, OVX, 20 weeks; for plasma cholesterol levels (in words): Example 2: Org OD14 2 and 6 mg, E2 4 mg orally daily, E2D 150 µg s.c. weekly", "experimental": "(§1) The model is considered relevant to the human atherosclerotic process, because the cellular events occurring during the development of the atherosclerotic lesions during the atherogenic diet are similar to those observed in different stages of atherosclerotic processes in coronary arteries.\n(§2) An experiment was performed with 7 groups of sexually mature, virgin female New Zealand White rabbits (Harlan, Zeist, The Netherlands), age 7-9 months and weighing approximately 3 kg (number of […] per group: 13-14). During the acclimatization period the rabbits were fed a diet of standard commercial rabbit chow LKK20 (Hope Farms, Woerden, The Netherlands). Three weeks prior to the start of the experiment the animals were anaesthetized and underwent bilateral ovariectomy (OVX) or were sham operated. After three weeks, at the start of the experiment, the rabbits were randomized over the treatment groups.\n(§3) The animals were randomly allocated into 7 experimental groups using a randomized block design. […] One group was fed the standard rabbit chow (LKK20). Food intake was restricted to 80 grams daily.\n(§4) Groups 1, 2 and 3 were on a daily placebo treatment. Groups 4-5 were treated with 7α-methyl-17α-ethynyl-17β-hydroxy-estra-5(10)-en-3-one (OD-14; tibolone; 6 or 2 mg daily); group 6 with 17β-estradiol (4 mg daily). Group 7 was on treatment with 17β-estradiol decanoate (150 µg in 1 ml arachis oil injected subcutaneously once a week).\n(§5) During the experiment blood samples were drawn out of the central ear artery after sedation with Hypnorm (0.1 ml i.m.) (Janssen Pharmaceutics, Beerse, Belgium) before the daily treatment, at week 4,8,12,16 and 20, to monitor the plasma cholesterol levels and to measure, at week 17, plasma estradiol levels and plasma tibolone levels. Twenty weeks after the start of the experiment animals were anaesthetized by an i.m. injection of Hypnorm (0.5 ml/kg). After blood sampling the rabbits were killed by exsanguination and the aortic arch, uterus and carotid artery removed for further analyses.\n(§6) Three weeks prior to the start of the experiment the animals were ovariectomized. At the start of the experiment the carotid artery was de-endothelialised using the air-drying technique. The normal rabbit chow was replaced by the atherogenic diet except for the control group which received during the experiment the normal rabbit chow.\n(§7) Group 5 was on treatment with 17β-estradiol decanoate (300 µg in 1 ml arachis oil injected subcutaneously once a week)."}, "[2]": {"tested_on": "female ovariectomized rabbits", "assay": "Uterus weight (estrogenic activity), cholesterol fed rabbit model", "details": "for Uterus weight per 100 grams body weight: cholesterol diet, OVX, necropsy at 20 weeks", "experimental": "as §1\nas §2, with “groups. In all animals de-endothelialisation of a segment of the left carotid artery was applied by using the air-drying technique (Fishman, J.A. et al., \"Endothelial regeneration in the rat carotid artery and the significance of endothelial denudation in the pathogenesis of myointimal thickening\", Lab. Invest. 1975, 32, 339-351; and Lafont, A. et al., \"Restenosis and experimental angioplasty: Intimal, medial and adventitial changes associated with constructive remodeling\", Circulation Research, 1995, 76, 996-1002)” for “groups.”\n(§8) The animals were randomly allocated into 7 experimental groups using a randomized block design. The groups were fed an atherogenic diet (commercial rabbit chow (LKK20) enriched with 0.4 grams cholesterol, 3.75 grams coconut oil and 3.75 grams peanut oil per 100 grams). One group was fed the standard rabbit chow (LKK20). Food intake was restricted to 80 grams daily.\nas §4, with “The treatments (Table I) were daily administered orally as a tablet, prepared as in Example 1. Groups 1,” for “Groups 1,”\nas §5\n(§9) In addition to example 2 an additional experiment was performed with two lower doses of Org OD14 and a higher dose of estradiol decanoate. […] The procedures were identical to those in example 2.\nas §6\n(§10) The treatments (table II) of group 1, 2, 3 and 4 were daily administered orally as a tablet, prepared as in example 1. The doses of Org OD14 per tablet, however, were 0.6 mg and 0.15 mg respectively. Group 5 was on treatment with 17β-estradiol decanoate (300 µg in 1 ml arachis oil injected subcutaneously once a week). Twenty weeks after the start of the experiment was ended in the same manner as described in example 2.\n(§11) After 20 weeks of diet and of daily treatment, necropsy was performed to determine the accumulation of cholesterol and fatty streaks in the aortic arch and the advanced lesions in the carotid artery. […]"}, "[3]": {"tested_on": "female ovariectomized rabbits", "assay": "Vessel wall cholesterol measurement in the aortic arch", "details": "for Cholesterol level in aortic arch: cholesterol diet, OVX, necropsy at 20 weeks", "experimental": "as §1, §2, §3, §4, §5, §6, §7\nThe amount of protein in the tissue was determined by the method of Lowry."}, "[4]": {"tested_on": "female ovariectomized rabbits", "assay": "Intimal thickening (advanced lesions) in carotid artery after de-endothelialisation", "details": "for Advanced lesions in carotid artery: intimal surface: cholesterol diet, OVX, necropsy at 20 weeks; for advanced lesion formation following mechanical de-endothelisation (in words): Example 2: Org OD14 2 and 6 mg, E2 4 mg orally daily, E2D 150 µg s.c. weekly", "experimental": "as §1\nas §2, with “groups. In all animals de-endothelialisation of a segment of the left carotid artery was applied by using the air-drying technique (Fishman, J.A. et al., \"Endothelial regeneration in the rat carotid artery and the significance of endothelial denudation in the pathogenesis of myointimal thickening\", Lab. Invest. 1975, 32, 339-351; and Lafont, A. et al., \"Restenosis and experimental angioplasty: Intimal, medial and adventitial changes associated with constructive remodeling\", Circulation Research, 1995, 76, 996-1002)” for “groups.”\nas §8\nas §4, with “The treatments (Table I) were daily administered orally as a tablet, prepared as in Example 1. Groups 1,” for “Groups 1,”\nas §5, with “analyses. […]” for “analyses.”\nThe left (airdried) carotid artery was dissected and fixed in 2% paraformaldehyde containing 6.8% glucose. The right carotid artery was used as comparison. After fixation the tissue was divided in blocks with a length of 2 mm and embedded in paraffin (Paraplast plus®, Sherwood Medical Co, St. Louis, USA) using an automated tissue processor (Hypercenter XP, Shandon).\nTo measure intimal thickening (using image analysis) a specific staining method and a belonging image analysis application have been developed.\nMeasurements were performed on 2 µm transverse sections which were treated with elastase (Serva Feinbiochemica Gmbh, Heidelberg, Germany) prior to elastin staining with Lawson solution (Boom, Meppel, the Netherlands) and light green (Sigma). Subsequently sections were airdried and mounted in Pertex (Leica Gmbh, Nussloch, Germany).\nFor morphological study both methylene blue/Azur II and hemotoxylin/eosin stained (2 µm) transverse sections were used. Smooth muscle cells and macrophages were detected with respectively α-actin antibodies (Sigma) and anti-macrophage antibodies (RAM11, DAKO, Glostrup, Denmark). […]"}, "[5]": {"tested_on": "female ovariectomized rabbits", "assay": "Fatty streaks in the aortic arch (Sudan Red, image analysis)", "details": "cholesterol diet, OVX, necropsy at 20 weeks", "experimental": "as §1\nas §2, with “groups. In all animals de-endothelialisation of a segment of the left carotid artery was applied by using the air-drying technique (Fishman, J.A. et al., \"Endothelial regeneration in the rat carotid artery and the significance of endothelial denudation in the pathogenesis of myointimal thickening\", Lab. Invest. 1975, 32, 339-351; and Lafont, A. et al., \"Restenosis and experimental angioplasty: Intimal, medial and adventitial changes associated with constructive remodeling\", Circulation Research, 1995, 76, 996-1002)” for “groups.”\nas §8\nas §4, with “The treatments (Table I) were daily administered orally as a tablet, prepared as in Example 1. Groups 1,” for “Groups 1,”\nas §5, §9, §6, §10\nThe aortic arch was dissected free, opened longitudinally and fixed in 2% paraformaldehyde. The tissue was then stained for lipids using 0.3% (w/v) Sudan Red. Colour photographs were taken of all segments. […]"}, "[6]": {"assay": "Body weight at necropsy, cholesterol fed rabbit model", "details": "cholesterol diet, OVX, necropsy at 20 weeks", "experimental": "as §1\nas §2, with “groups. In all animals de-endothelialisation of a segment of the left carotid artery was applied by using the air-drying technique (Fishman, J.A. et al., \"Endothelial regeneration in the rat carotid artery and the significance of endothelial denudation in the pathogenesis of myointimal thickening\", Lab. Invest. 1975, 32, 339-351; and Lafont, A. et al., \"Restenosis and experimental angioplasty: Intimal, medial and adventitial changes associated with constructive remodeling\", Circulation Research, 1995, 76, 996-1002)” for “groups.”\nas §8\nas §4, with “The treatments (Table I) were daily administered orally as a tablet, prepared as in Example 1. Groups 1,” for “Groups 1,”\nas §5, §9, §6, §10, §11"}, "[7]": {"tested_on": "female ovariectomized rabbits", "assay": "Overall atherosclerotic lesion formation, cholesterol fed rabbit model", "details": "Example 3: Org OD14 0.6 mg orally daily; estradiol decanoate 300 µg s.c. weekly", "experimental": "as §1, §9, §6, §10\nIn example 3 we tested Org OD14 at two lower doses (0.6 and 0.15 mg orally once daily) and estradiol decanoate at a higher dose (300 µg s.c. once weekly). […]"}, "[8]": {"details": "Example 2, Group 6: 4 mg orally daily"}, "[9]": {"details": "Example 2, Group 7: 150 µg subcutaneously once a week"}, "[10]": {"details": "Example 3: 300 µg subcutaneously once weekly"}}}
{"compound": "C[C@]12CC[C@@H]3c4ccc(O)cc4CC[C@H]3[C@@H]1CCC2O", "note": "(stereo partly drawn) [Estradiol, estra-1,3,5 (10)-triene-3,17-diol, reference compound]", "values": [{"measurement": "Mean plasma cholesterol exposure", "setting": "[1]; [8]", "result": "27.7 ± 2.8", "unit": "mmol/L/day"}, {"measurement": "plasma cholesterol levels (in words)", "setting": "[1]", "result": "did not affect plasma cholesterol levels"}, {"measurement": "Uterus weight per 100 grams body weight", "setting": "[2]; [8]", "result": "0.31 ±0.02", "unit": "per 100 grams body weight"}, {"measurement": "Cholesterol level in aortic arch", "setting": "[3]; [8]", "result": "521 ± 99", "unit": "nmol/mg protein"}, {"measurement": "cholesterol accumulation in the aortic arch (in words)", "setting": "[3]; Example 2: Org OD14 2 and 6 mg, E2 4 mg orally daily", "result": "did not lead to a reduction in cholesterol accumulation"}, {"measurement": "Advanced lesions in carotid artery: intimal surface", "setting": "[4]; [8]", "result": "0.30 ± 0.06", "unit": "mm^2"}, {"measurement": "advanced lesion formation following mechanical de-endothelisation (in words)", "setting": "[4]", "result": "had no effect on advanced lesion formation"}, {"measurement": "Fatty streak in aortic arch", "setting": "[5]; [8]", "result": "25.5 ± 5.2 % of arcus covered"}]}
{"compound": "CCCCCCCCCC(=O)O[C@H]1CC[C@H]2[C@@H]3CCc4cc(O)ccc4[C@H]3CC[C@]12C", "note": "[Estradiol decanoate, 17β-estradiol decanoate, reference compound]", "values": [{"measurement": "Mean plasma cholesterol exposure", "setting": "[1]; [9]", "result": "30.0 ± 3.7", "unit": "mmol/L/day"}, {"measurement": "plasma cholesterol levels (in words)", "setting": "[1]", "result": "did not affect plasma cholesterol levels"}, {"measurement": "Mean plasma cholesterol exposure", "setting": "[1]; [10]", "result": "23.0 ± 2.0", "unit": "mmol/L/day"}, {"measurement": "Uterus weight per 100 grams body weight", "setting": "[2]; [9]", "result": "0.37 ±0.04", "unit": "per 100 grams body weight"}, {"measurement": "increase of uterus weight", "setting": "[2]; Example 3, text: estradiol decanoate 300 µg s.c. once weekly, versus placebo 0.054", "result": 835, "unit": "%"}, {"measurement": "uterus weight", "setting": "[2]; Example 3, text: estradiol decanoate 300 µg s.c. once weekly, placebo 0.054", "result": "0.505 grams per 100 grams body weigh"}, {"measurement": "Uterus weight per 100 grams body weight", "setting": "[2]; [10]", "result": "0.505 ±0.075", "unit": "per 100 grams body weight"}, {"measurement": "Cholesterol level in aortic arch", "setting": "[3]; [9]", "result": "318 ± 58", "unit": "nmol/mg protein"}, {"measurement": "reduction of cholesterol accumulation in the aortic arch", "setting": "[3]; Example 2: 150 µg s.c. once a week, versus placebo", "result": 46, "unit": "%"}, {"measurement": "Cholesterol level in aortic arch", "setting": "[3]; [10]", "result": "225 ± 69", "unit": "nmol/mg protein"}, {"measurement": "Body weight", "setting": "[6]; [9]", "result": "2973 ± 52", "unit": "grams"}, {"measurement": "Body weight", "setting": "[6]; [10]", "result": "3093 ± 60", "unit": "grams"}, {"measurement": "atherosclerotic lesion formation (in words)", "setting": "[7]", "result": "still only partially inhibited"}, {"measurement": "Advanced lesions in carotid artery: intimal surface", "setting": "[4]; [9]", "result": "0.23 ± 0.06 * mm^2"}, {"measurement": "Histology of the lesions", "setting": "[4]; Example 2, carotid artery, placebo on cholesterol diet: smooth muscle cells and foam cells", "result": "the lesions still consisted of smooth muscle cells and foam cells"}, {"measurement": "advanced lesion formation following mechanical de-endothelisation (in words)", "setting": "[4]", "result": "reduced advanced lesion formation"}, {"measurement": "Advanced lesions in carotid artery: intimal surface", "setting": "[4]; [10]", "result": "0.18 ± 0.02 * mm^2"}, {"measurement": "Fatty streak in aortic arch", "setting": "[5]; [9]", "result": "28.1 ± 4.1 % of arcus covered"}, {"measurement": "Fatty streak in aortic arch", "setting": "[5]; [10]", "result": "14.2 ± 3.2 % of arcus covered"}]}
